Measurements taken from US5612331A, “Tetrahydrocarbazole derivatives as 5-HT1-like agonists” (SmithKline Beecham PLC, priority 1992, dated 1997).
Structures can show the parent of a compound that is named as a salt.

Biological target: T1, 5-HT1-like receptor (Oryctolagus cuniculus, UniProt P49144)
T1 construct: the basilar artery removed with the aid of a dissecting microscope; from tissue; host or cells: rabbit basilar artery ring segments, endothelium removed
Assay: Rabbit isolated basilar artery, cumulative concentration-effect curves (isometric tension)
Format: cell-based
Conditions: rabbit isolated basilar artery rings, endothelium removed; in presence of ascorbate, indomethacin, cocaine, ketanserin and prazosin
Description: Experiments were performed in intracranial arteries from rabbit isolated basilar artery in a similar method to one described previously (Parsons and Whalley, 1989. Eur J Pharmacol 174, 189-196.).
In brief, rabbits were killed by overdose with anaesthetic (sodium pentobarbitone). The whole brain was quickly removed and immersed in ice cold modified Kreb's solution and the basilar artery removed with the aid of a dissecting microscope. The Krebs solution was of the following composition (mM) Na^+ (120); K^+ (5); Ca^2+ (2.25); Mg^2+ (0.5); Cl^- (98.5); SO4^2- (1); EDTA (0.04), equilibrated with 95% O2 /5% CO2. The endothelium was removed by a gentle rubbing of the lumen with a fine metal wire. Arteries were then cut into ring segments (ca 4-5 mm wide) and set up for recording of isometric tension in 50 ml tissue baths in modified Krebs solution with the additional supplement of (mM); […] (20); fumarate (10); pyruvate (5); L-glutamate (5) and glucose (10). The arteries were then placed under a resting force of 3-4 mN maintained at 37° C. and the solution bubbled with 95% O2 /5% CO2.
After tests for initial reactivity with 90 mM KCl depolarising solution and for lack of acetylcholine-induced relaxation of 5-HT ([…]) precontraction, cumulative concentration-effect curves ([…]) to 5-HT were constructed in the presence of ascorbate […], cocaine […], indomethacin […], ketanserin […] and prazosin […].
Following a 45-60 min wash period, cumulative concentration-effect curves to the test compounds or 5-HT (as a time match control) were constructed in the presence of ascorbate, indomethacin, cocaine, ketanserin and prazosin.

T1 sequence (P49144 whole entry): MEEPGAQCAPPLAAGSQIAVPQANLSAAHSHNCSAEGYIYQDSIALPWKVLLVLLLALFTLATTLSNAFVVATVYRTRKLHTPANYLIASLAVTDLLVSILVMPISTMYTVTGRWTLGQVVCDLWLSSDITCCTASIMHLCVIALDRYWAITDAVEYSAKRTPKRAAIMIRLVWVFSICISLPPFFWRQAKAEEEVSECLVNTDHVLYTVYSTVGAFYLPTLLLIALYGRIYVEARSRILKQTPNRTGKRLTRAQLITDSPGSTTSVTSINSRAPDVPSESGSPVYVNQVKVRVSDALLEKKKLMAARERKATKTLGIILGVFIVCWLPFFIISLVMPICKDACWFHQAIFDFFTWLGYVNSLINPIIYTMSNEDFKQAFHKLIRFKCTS

NC1CCc2[nH]c3ccc(C(=O)NCCCc4ccccc4)cc3c2C1 (stereo not drawn) [Example 1, 3-Amino-6-N-(3-phenylpropyl)carboxamido-1,2,3,4-tetrahydrocarbazole oxalate salt]
EC50: 0.09 to 4.01 µM

NC1CCc2[nH]c3ccc(C(=O)NCCc4ccccc4)cc3c2C1 (stereo not drawn) [Example 3, 3-Amino-6-N-(2-phenylethyl)carboxamido-1,2,3,4-tetrahydrocarbazole]
EC50: 0.09 to 4.01 µM

NC1CCc2[nH]c3ccc(C(=O)NCCc4ccc([N+](=O)[O-])cc4)cc3c2C1 (stereo not drawn) [Example 5, 3-Amino-6-N-[2-(4-nitrophenyl)ethyl]carboxamido-1,2,3,4-tetrahydrocarbazolefumarate salt]
EC50: 0.09 to 4.01 µM

Nc1ccc(CCNC(=O)c2ccc3[nH]c4c(c3c2)CC(N)CC4)cc1 (stereo not drawn) [Example 6, 3-Amino-6-N-[2-(4-aminophenyl)ethyl]carboxamido-1,2,3,4-tetrahydrocarbazoleoxalate salt]
EC50: 0.09 to 4.01 µM

CS(=O)(=O)Nc1ccc(CCNC(=O)c2ccc3[nH]c4c(c3c2)CC(N)CC4)cc1 (stereo not drawn) [Example 7, 3-Amino-6-N-[2-(4-methylsulphonamidophenyl)ethyl]carboxamido-1,2,3,4-tetrahydrocarbazole oxalate salt]
EC50: 0.09 to 4.01 µM

COc1ccc(CCNC(=O)c2ccc3[nH]c4c(c3c2)CC(N)CC4)cc1 (stereo not drawn) [Example 8, 3-Amino-6-N-[2-(4-methoxyphenyl)ethyl]carboxamido-1,2,3,4-tetrahydrocarbazole oxalate salt]
EC50: 0.09 to 4.01 µM

NC1CCc2[nH]c3ccc(C(=O)NCCc4ccc(S(N)(=O)=O)cc4)cc3c2C1 (stereo not drawn) [Example 9, 3-Amino-6-N-[2-(4-phenylsulphonamido)ethyl]carboxamido-1,2,3,4-tetrahydrocarbazole]
EC50: 0.09 to 4.01 µM

COc1ccc(/C=C/CNC(=O)c2ccc3[nH]c4c(c3c2)CC(N)CC4)cc1 (stereo not drawn) [Example 13, 3-Amino-6-[E-3-(4-methoxyphenyl)prop-2-enyl]carboxamido-1,2,3,4-tetrahydrocarbazole oxalate salt]
EC50: 0.09 to 4.01 µM

COc1cccc(/C=C/CNC(=O)c2ccc3[nH]c4c(c3c2)CC(N)CC4)c1 (stereo not drawn) [Example 14, 3-Amino-6-[E-3-(3-methoxyphenyl)prop-2-enyl]carboxamido-1,2,3,4-tetrahydrocarbazole oxalate salt]
EC50: 0.09 to 4.01 µM

NC1CCc2[nH]c3ccc(C(=O)NC/C=C/c4ccccc4)cc3c2C1 (stereo not drawn) [Example 15, 3-Amino-6-(E-3-(phenylprop-2-enyl)carboxamido-1,2,3,4-tetrahydrocarbazole oxalate salt]
EC50: 0.09 to 4.01 µM

COc1ccc(CCCNC(=O)c2ccc3[nH]c4c(c3c2)CC(N)CC4)cc1 (stereo not drawn) [Example 17, 3-Amino-6-[3-(4-methoxyphenyl)propyl]carboxamido-1,2,3,4-tetrahydrocarbazole oxalate salt]
EC50: 0.09 to 4.01 µM

NC1CCc2[nH]c3ccc(C(=O)NC/C=C/c4cccc([N+](=O)[O-])c4)cc3c2C1 (stereo not drawn) [Example 18, 3-Amino-6-[E-3 (3-nitrophenyl)prop-2-enyl]carboxamido-1,2,3,4-tetrahydrocarbazole oxalate salt]
EC50: 0.09 to 4.01 µM
